{"source": "patent US4665098A", "about": "“Pharmaceutical composition of N-(4-hydroxyphenyl) retinamide having increased bioavailability” (McNeilab, Inc., priority 1985, dated 1987)", "key": {"[1]": {"assay": "Stability of 4-EPR internal standard solution stored in the refrigerator", "format": "physicochemical", "details": "six months", "protocol": "Assay is by high pressure liquid chromatography using a Waters HPLC System consisting of a Model 6000A solvent delivery system with a Model 440 UV absorbance detector (365 nm filter), and either a Model U6K injector (2 ml sample loop) or a Waters Intelligent Sample Processor (WISP™). […] The column is a 10 cm×4.6 mm (i.d.) Brownlee Labs RP-18 Spheri-5 (5μ) stainless steel column equipped with a 3 cm×4.6 mm (i.d.) Brownlee Labs RP-18 (10μ) stainless steel guard column. The mobile phase is acetonitrile:water:glacial acetic acid (75:23:2, v/v/v) and is prepared in 2 liter quantities. The components of the mobile phase are mixed together, filtered through a 5 μm Millipore® filter apparatus and degassed under vacuum for one-half hour while stirring. The internal standard for the assay is N-(4-ethoxyphenyl)retinamide (4-EPR). […]\nThe procedure of Example 1 is followed using a 4 -EPR internal standard containing 100 μg/ml which is prepared by weighing 10.0 mg of 4-EPR into a 100 ml volumetric flask and bringing to volume with methanol. A 1/2000 dilution of this stock solution is made by transferring 0.1 ml of 100 μg/ml 4-EPR solution into a 200 ml volumetric flask and bringing to volume with methanol. The resulting solution contains 50 ng/ml of 4-EPR. […] For the assay, a 1.0 ml aliquot of plasma is transferred to a 15 ml screw-cap conical bottomed glass centrifuge tube. […]"}, "[2]": {"assay": "Bioavailability of HPR in vivo (general statements)", "details": "small particle size of the HPR"}, "[3]": {"details": "one formulation of HPR, 5 mg/kg, rats, cited from earlier work"}, "mammary cancer": {"system": "mammary cancer", "details": "rats, induced with N-nitroso-N-methyl urea; cited from earlier work"}, "rats": {"system": "rats", "details": "oral; cited from earlier work"}, "[4]": {"details": "cited from earlier work"}, "[5]": {"details": "cited from earlier work", "remark": "listed apart in the source"}}}
{"smiles": "CCOc1ccc(NC(=O)C=C(C)C=CC=C(C)C=CC2=C(C)CCCC2(C)C)cc1", "note": "[Formulation 4-EPR, N-(4-ethoxyphenyl)retinamide]", "values": [{"measurement": "Stability of 4-EPR solution", "setting": "[1]; 50 ng/ml in methanol", "result": "without signs of decomposition"}, {"measurement": "Stability of 4-EPR solution", "setting": "[1]; 500 ng/ml in acetonitrile", "result": "without signs of decomposition"}]}
{"smiles": "CC1=C(/C=C/C(C)=C/C=C/C(C)=C/C(=O)Nc2ccc(O)cc2)C(C)(C)CCC1", "note": "[HPR, N-(4-Hydroxyphenyl)-all-trans-retinamide]", "values": [{"measurement": "Effect of small particle size on bioavailability", "setting": "[2]", "result": "tends to aid bioavailability"}, {"measurement": "Half-life of elimination", "setting": "[3]; oral", "result": 12, "unit": "h"}, {"measurement": "Oral absorption", "setting": "[3]; oral", "result": "incompletely absorbed after oral administration"}, {"measurement": "Elimination", "setting": "[3]", "result": "eliminated slowly"}, {"measurement": "Protection against mammary cancer", "setting": "mammary cancer", "result": "protects against mammary cancer in rats"}, {"measurement": "Toxicity relative to retinyl acetate and retinoic acid", "setting": "rats", "result": "less toxic when given orally to rats then retinyl acetate and retinoic acid"}, {"measurement": "Solubility in water", "setting": "[4]", "result": "virtually insoluble in water"}]}
{"smiles": "CC1=C(/C=C/C(C)=C/C=C/C(C)=C\\C(=O)O)C(C)(C)CCC1", "note": "[isotretinoin]", "values": [{"measurement": "Effect of food intake on bioavailability", "setting": "[5]", "result": "affected by food intake"}]}
